Experimental data: patent US8258169B2, “Pyrazole-4-N-alkoxycarboxamides as microbiocides” (Syngenta Crop Protection, LLC, priority 2008, dated 2012)

CCON(C(=O)c1cn(C)nc1C(F)F)C(C)Cc1c(Cl)cc(Cl)cc1Cl (centres unmarked) [Compound 1.032, 3-difluoromethyl-1-methyl-1H-pyrazole-4-carboxylic acid ethoxy-[1-methyl-2-(2,4,6-trichlorophenyl)-ethyl]-amide]
melting point: 111 to 114 °C

CON(CCCc1c(Cl)cc(Cl)cc1Cl)C(=O)c1cn(C)nc1C(F)F [Compound 2.040, 3-difluoromethyl-1-methyl-1H-pyrazole-4-carboxylic acid methoxy-[3-(2,4,6-trichloro-phenyl)-propyl]-amide]
melting point: 95 to 96 °C
